Key:
Assay in all cases: Cancer cell growth inhibition, SRB assay
Hs578T = format: cell-based; details: Homo sapiens, Hs-578T, 144 h; Hs578T (Breast); SRB at Day 6; triplicate
SW480 = format: cell-based, human; details: SRB at Day 6; for GI50: Homo sapiens, 144 h, SW480 (Colon), triplicate; for Percentage of Growth Inhibition: SW480, at 10 μM, NE = no activity at 10 micromolar
SW626 = format: cell-based, human; set-up: Percentage of Growth Inhibition: scale not given here; details: SRB at Day 6; for GI50: Homo sapiens, 144 h, SW626 (Ovarian), triplicate; for Percentage of Growth Inhibition: SW626, at 10 μM, NE = no activity at 10 micromolar
Method: (§1) Human cancer cells (MCF-7, H358, H460, HCT116 p53^+/+, HCT116 p53^−/−, A172, PC-3, DU-145 and SW626) were maintained in DMEM medium containing 10% Fetal Bovine Serum (FBS) (Invitrogen, Burlington, ON, Canada) and normal cells HMEC, 184A1, NHBE and PrEC were cultured in MEGM, MEGM plus transferring and cholera toxin, BEGM and PrEGM supplemented with various growth factors (Cambrex, Charles city, Iowa, USA), respectively.
(§2) Compounds of Examples S1 to S30, and 4-(carboxymethyl)-4-(6-(3-hexyloxy)phenoxy)hexanoamido)-1,1-dimethylpiperidinium 2,2,2-trifluoroactate (“Compound A”) were tested in this example. Each of the tested compounds was dissolved in DMSO and further diluted in cell culture medium for the experiments performed. Cells were seeded into 96-well plates with 1,500-5,000 cells/well according to cell growth rate. After 24 h, DMEM medium containing 10% FBS were changed to DMEM containing 3% FBS for cancer cells. The compound was added into the cell culture at the indicated concentrations, and the final concentration of DMSO was adjusted to a final concentration of 0.1%. Cell viability was assessed by Sulforhodamine B (SRB) assay at Day 6.
(§3) Sulforhodamine B (SRB) (Sigma, Oakville, ON, Canada) is a water-soluble dye that binds to the basic amino acids of the cellular proteins. Thus, colorimetric measurement of the bound dye provides an estimate of the total protein mass that is related to the cell number. The cells were fixed in situ by gently aspirating off the culture media and adding 50 ul of cold 10% Tri-chloroacetic Acid (TCA) per well and incubated at 4° C. for 30-60 min. The plates were washed five times with water and allowed to air dry for 5 min. 50 ul of 0.4% (w/v) SRB dissolved in 1% (v/v) acetic acid were added into each well, plates were then incubated at RT for 30 min for staining, washed four times with 1% acetic acid to remove any unbound dye and then allowed to air dry for 5 min. Stain was solubilized with 100 ul of 10 mM Tris pH 10.5 per well. Absorbance was read at 570 nm on a spectrophotometer. GI50 (compound concentration required for 50% of growth inhibition) was calculated using GraphPad Prism 4.0 software (GraphPad Software, Inc., San Diego, Calif., USA). Growth inhibition (%) was determined as percentage of cells remaining compared to the DMSO-treated cells as control.

MCF-7 = format: cell-based, human; set-up: Percentage of Growth Inhibition: scale not given here; details: SRB at Day 6; for GI50: Homo sapiens, MCF7, 144 h, MCF-7 (Breast), triplicate; for Percentage of Growth Inhibition: MCF-7, at 10 μM, NE = no activity at 10 micromolar
Method: as §1, §2, §3

H460 = format: cell-based, human; details: Homo sapiens, NCI-H460, 144 h; H460 (Lung); SRB at Day 6; triplicate
In short: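 Growth inhibition after 6 days in low-serum (3% FBS) DMEM, quantified by sulforhodamine B staining at 570 nm.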

Caov-3 = format: cell-based; details: Homo sapiens, 144 h; Caov-3 (Ovarian); SRB at Day 6; triplicate
MDA-231 = format: cell-based, human; details: Homo sapiens, MDA-MB-231, 144 h; MDA-231 (Breast); SRB at Day 6; triplicate

| Structure (SMILES) | GI50 (Hs578T) [µM] | GI50 (SW480) [µM] | GI50 (SW626) [µM] | GI50 (MCF-7) [µM] | GI50 (H460) [µM] | Percentage of Growth Inhibition (SW480) [%] | Percentage of Growth Inhibition (MCF-7) [%] | Percentage of Growth Inhibition (SW626) [%] | GI50 (Caov-3) [µM] | GI50 (MDA-231) [µM] |
| --- | --- | --- | --- | --- | --- | --- | --- | --- | --- | --- |
| CCCCCCCCc1ccc(NC(=O)NC2(CC(=O)O)CC[N+](C)(C)CC2)cc1 [Example S2, 4-(Carboxymethyl)-1,1-dimethyl-4-(3-(4-octylphenyl)ureido)piperidinium 2,2,2-trifluoroacetate] | 50 | 0.7 | 2.5 | 10 | 1.8 | – | – | – | – | – |
| CCCCCc1ccc(S(=O)(=O)NC2(CC(=O)O)CCN(C)CC2)cc1 [Example S3, 4-(carboxymethyl)-1-methyl-4-(4-pentylphenylsulfonamido)piperidinium 2,2,2-trifluoroacetate] | – | – | – | – | – | 0.0383 | 0.007318 | – | – | – |
| C[N+]1(C)CCC(CC(=O)O)(NC(=O)c2ccc(CCc3ccccc3)o2)CC1 [Example S5, 4-(Carboxymethyl)-1,1-dimethyl-4-(5-phenethylfuran-2-carboxamido)-piperidinium 2,2,2-trifluoroacetate] | – | – | – | – | – | – | 0.02312 | 0.03032 | – | – |
| C[N+]1(C)CCC(CC(=O)O)(NC(=O)c2ccc(C#Cc3ccccc3)o2)CC1 [Example S6, 4-(Carboxymethyl)-1,1-dimethyl-4-(5-(phenylethynyl)furan-2-carboxamido)-piperidinium 2,2,2-trifluoroacetate] | – | – | – | – | – | 0.03677 | 0.03714 | 0.2084 | – | – |
| CCCCCCCCc1ccc(NS(=O)(=O)NC2(CC(=O)O)CCN(C)CC2)cc1 [Example S7, 4-(carboxymethyl)-1-methyl-4-(N-(4-octylphenyl)sulfamoylamino)-piperidinium 2,2,2-trifluoroacetate] | > 50 | 68 | > 50 | 27 | – | – | – | – | 22 | – |
| CCCCCCCCc1ccc(NS(=O)(=O)NC2(CC(=O)O)CC[N+](C)(C)CC2)cc1 [Example S8, 4-(carboxymethyl)-1,1-dimethyl-4-(N-(4-octylphenyl)sulfamoylamino)piperidinium 2,2,2-trifluoroacetate] | 26 | 2.8 | 15 | 2 | – | – | – | – | 2 | – |
| CCCCCCCCc1ccc(NC(=O)NC2(CC(=O)O)CCC[NH+](C)C2)cc1 (stereo not shown) [Example S9, 3-(Carboxymethyl)-1-methyl-3-(3-(4-octylphenyl)ureido)piperidinium 2,2,2-trifluoroacetate] | – | – | – | – | – | 0.00756 | 0.02731 | 0.02424 | – | – |
| CCCCCCCCc1ccc(NC(=O)NC2(CC(=O)O)CCC[N+](C)(C)C2)cc1 (stereo not shown) [Example S10, 3-(carboxymethyl)-1,1-dimethyl-3-(3-(4-octylphenyl)ureido)-piperidinium 2,2,2-trifluoroacetate] | 39 | 0.7 | 2.7 | 5.1 | – | – | – | – | – | – |
| CCCCCCCCc1ccc(NS(=O)(=O)NC2(CC(=O)O)CCCN(C)C2)cc1 (stereo not shown) [Example S15, 3-(carboxymethyl)-1-methyl-3-(N-(4-octylphenyl)sulfamoylamino)-piperidinium 2,2,2-trifluoroacetate] | 25 | 36 | 33 | 15 | – | – | – | – | 4 | – |
| CCCCCCCCc1ccc(NS(=O)(=O)NC2(CC(=O)O)CCC[N+](C)(C)C2)cc1 (stereo not shown) [Example S16, 3-(carboxymethyl)-1,1-dimethyl-3-(N-(4-octylphenyl)sulfamoylamino)-piperidinium 2,2,2-trifluoroacetate] | 17 | 4 | 18 | 3.9 | – | – | – | – | 2.5 | 0.5 |
| CCCCCCCCc1ccc(NC(=O)NC2(CC(=O)O)CC[N+](C)(C)C2)cc1 (stereo not shown) [Example S18, 3-(carboxymethyl)-1,1-dimethyl-3-(3-(4-octylphenyl)ureido)-pyrrolidinium 2,2,2-trifluoroacetate] | 26 | 1.2 | 3.9 | 5.9 | 2.2 | – | – | – | – | – |
| CCCCCc1ccc(S(=O)(=O)NC2(CC(=O)O)CC[N+](C)(C)C2)cc1 (stereo not shown) [Example S20, 3-(carboxymethyl)-1,1-dimethyl-3-(4-pentylphenylsulfonamido)-pyrrolidinium 2,2,2-trifluoroacetate] | – | – | – | – | – | 0.02596 | 0.2269 | 0.07399 | – | – |
| CCCCCCCCCCc1ccc(C(=O)NC2(CC(=O)O)CCN(C)C2)cc1 (stereo not shown) [Example S21, 3-(carboxymethyl)-3-(4-decylbenzamido)-1-methylpyrrolidinium 2,2,2-trifluoroacetate] | – | – | – | – | – | 0.09568 | 0.01838 | 0.154 | – | – |
| CCCCCCCCCCc1ccc(C(=O)NC2(CC(=O)O)CC[N+](C)(C)C2)cc1 (stereo not shown) [Example S22, 3-(Carboxymethyl)-3-(4-decylbenzamido)-1,1-dimethylpyrrolidinium 2,2,2-trifluoroacetate] | – | – | – | – | – | 0.6141 | 0.06486 | 0.2198 | – | – |
| CCCCCCCCc1ccc(NC(=O)NC2(CC(=O)O)CNC2)cc1 [Example S23, 3-(carboxymethyl)-3-(3-(4-octylphenyl)ureido)azetidinium 2,2,2-trifluoroacetate] | 45 | 28 | 21 | 26 | – | – | – | – | 17 | – |
| CCCCCCCCc1ccc(NC(=O)NC2(CC(=O)O)C[N+](C)(C)C2)cc1 [Example S24, 3-(Carboxymethyl)-1,1-dimethyl-3-(3-(4-octylphenyl)ureido)azetidinium 2,2,2-trifluoroacetate] | 46 | 29 | 63 | 27 | – | – | – | – | 45 | – |
| O=C(O)CC1(NC(=O)c2ccc(C#Cc3ccccc3)o2)CNC1 [Example S26, 3-(carboxymethyl)-3-(5-(phenylethynyl)furan-2-carboxamido)-azetidinium 2,2,2-trifluoroacetate] | – | – | – | – | – | 0.04449 | 0.1403 | 0.07378 | – | – |
| CCCCCc1ccc(S(=O)(=O)NC2(CC(=O)O)C[N+](C)(C)C2)cc1 [Example S29, 3-(carboxymethyl)-1,1-dimethyl-3-(4-pentylphenylsulfonamido)-azetidinium 2,2,2-trifluoroacetate] | > 50 | > 50 | > 50 | 44 | – | – | – | – | – | > 50 |
| CCCCCCCCc1ccc(N(C)S(=O)(=O)NC2(CC(=O)O)CCC[N+](C)(C)C2)cc1 (stereo not shown) [Example S30, 3-(carboxymethyl)-1,1-dimethyl-3-(N-methyl-N-(4-octylphenyl)-sulfamoylamino)piperidinium 2,2,2-trifluoroacetate] | 3 | 3.5 | 21 | 3.1 | – | – | – | – | – | – |
